In PMC4833311, “Structure of Type IIL Restriction-Modification Enzyme MmeI in Complex with DNA Has Implications for Engineering New Specificities” (PLoS Biology, 2016):

Key:
MmeI [1] = target: T1, MmeI (Methylophilus methylotrophus, UniProt B2MU09); assay: X-ray crystal structure, […] Å (SAD); type: binding; conditions: ternary complex with 29-mer DNA containing TCCGAC; AdoMet site of methyltransferase domain; pH 7.5, 293 K; calcium ions in model
T1 construct: gene mmeIRM; residues 156-906 modelled, endonuclease domain 1-155 disordered; purified as described previously
T1 sequence (B2MU09 1-919): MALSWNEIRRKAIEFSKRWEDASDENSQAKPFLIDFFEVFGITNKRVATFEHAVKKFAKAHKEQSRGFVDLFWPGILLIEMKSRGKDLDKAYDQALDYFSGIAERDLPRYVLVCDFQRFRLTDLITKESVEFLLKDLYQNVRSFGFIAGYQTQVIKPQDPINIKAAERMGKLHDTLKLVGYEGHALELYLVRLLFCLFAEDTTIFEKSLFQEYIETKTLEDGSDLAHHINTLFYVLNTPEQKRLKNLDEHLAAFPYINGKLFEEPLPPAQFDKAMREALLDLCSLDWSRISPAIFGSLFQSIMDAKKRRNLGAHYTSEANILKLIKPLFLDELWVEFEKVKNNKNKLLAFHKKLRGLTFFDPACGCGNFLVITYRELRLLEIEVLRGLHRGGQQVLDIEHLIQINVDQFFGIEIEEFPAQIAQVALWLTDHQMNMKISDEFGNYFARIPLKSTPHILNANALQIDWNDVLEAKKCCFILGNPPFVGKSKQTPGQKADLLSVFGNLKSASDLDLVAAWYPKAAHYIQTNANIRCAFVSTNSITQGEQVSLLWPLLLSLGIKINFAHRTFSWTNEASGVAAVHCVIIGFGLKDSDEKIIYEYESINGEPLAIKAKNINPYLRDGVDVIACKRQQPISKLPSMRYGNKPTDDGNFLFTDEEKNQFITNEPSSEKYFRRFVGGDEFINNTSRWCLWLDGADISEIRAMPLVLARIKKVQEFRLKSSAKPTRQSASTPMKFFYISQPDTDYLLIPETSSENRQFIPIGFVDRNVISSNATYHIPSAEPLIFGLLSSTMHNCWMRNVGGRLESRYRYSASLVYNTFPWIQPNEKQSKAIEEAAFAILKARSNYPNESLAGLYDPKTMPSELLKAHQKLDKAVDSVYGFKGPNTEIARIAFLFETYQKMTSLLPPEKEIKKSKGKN

MmeI [2] = target: T2, MmeI (Methylophilus methylotrophus, UniProt B2MU09 1-919); assay: X-ray crystallography (2.6 A); Sinefungin; Ca2+ in model; Crystallization: 20% PEG 4K, 0.1 M Hepes pH 7.5, 0.1 M (NH4)2SO4, 293 K, with Sinefungin; no solution binding assay; conditions: protein: recombinant; blunt
T2 sequence: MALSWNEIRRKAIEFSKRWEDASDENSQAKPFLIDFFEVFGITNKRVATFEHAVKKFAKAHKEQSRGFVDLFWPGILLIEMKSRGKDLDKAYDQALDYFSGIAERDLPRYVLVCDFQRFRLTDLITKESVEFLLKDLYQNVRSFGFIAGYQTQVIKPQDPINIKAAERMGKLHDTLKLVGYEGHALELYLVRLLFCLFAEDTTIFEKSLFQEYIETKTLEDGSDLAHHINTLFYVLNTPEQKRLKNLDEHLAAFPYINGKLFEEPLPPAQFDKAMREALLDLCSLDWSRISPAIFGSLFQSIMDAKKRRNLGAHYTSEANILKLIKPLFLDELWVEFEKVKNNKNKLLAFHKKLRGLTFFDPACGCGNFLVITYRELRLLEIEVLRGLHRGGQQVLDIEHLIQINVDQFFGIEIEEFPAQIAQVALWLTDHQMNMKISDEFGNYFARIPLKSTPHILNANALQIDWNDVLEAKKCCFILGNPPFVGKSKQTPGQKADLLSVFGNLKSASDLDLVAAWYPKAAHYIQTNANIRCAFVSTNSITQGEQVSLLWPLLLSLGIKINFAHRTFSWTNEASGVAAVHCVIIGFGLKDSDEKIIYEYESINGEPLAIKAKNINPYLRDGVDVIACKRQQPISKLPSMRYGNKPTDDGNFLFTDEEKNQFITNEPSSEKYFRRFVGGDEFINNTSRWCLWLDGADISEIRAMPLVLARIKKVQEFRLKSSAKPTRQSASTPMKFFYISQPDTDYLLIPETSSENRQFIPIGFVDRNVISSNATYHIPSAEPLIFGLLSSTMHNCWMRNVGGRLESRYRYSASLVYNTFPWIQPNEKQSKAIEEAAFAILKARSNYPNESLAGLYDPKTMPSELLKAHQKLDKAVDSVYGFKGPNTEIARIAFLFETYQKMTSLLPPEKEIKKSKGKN

## Nc1ncnc2c1ncn2[C@@H]1O[C@H](C[C@@H](N)CC[C@H](N)C(=O)O)[C@@H](O)[C@H]1O [Sinefungin]
MmeI [1]
  X-ray crystal structure, 2.6 Å (SAD): The SAM analog Sinefungin is tightly bound within the MTase domain via extensive hydrogen bonding

B1: 29-mer MmeI site duplex, 5-bromouracil substituted (dsDNA)
DNA 1: TATCCGACAUAACGCUAGUCACUAGCUUC
DNA 2: GAAGCUAGUGACUAGCGUTAUGTCGGATA
modifications: U = 5-bromouracil (replaces several thymines outside the recognition site) in both strands
MmeI [2]
  binding result: binds
